This passage reports IC50 and logP results from ChEMBL document CHEMBL5321241, “Identification of new hit to lead magmas inhibitors as potential therapeutics for glioblastoma” (Bioorg Med Chem Lett, 2023).

Some results are limits rather than exact numbers.

Data set [1] is described as follows: Anticancer activity against human D-54MG cells assessed as cell growth inhibition inhibition incubated for 3 days. Type of data set: functional, cell-based. The following applies: D54MG, 72 h.
The test system of a further data set is U-251. In words: Anticancer activity against human U-251 cells assessed as cell growth inhibition inhibition incubated for 3 days. Format: functional, cell-based. Particulars: U-251, 72 h.
Data set [2] can be described thus: Lipophilicity, logP of compound. Format: physicochemical. Particulars: octanol/water.
Another data set relates to LN-229. In words: Anticancer activity against human LN-229 cells assessed as cell growth inhibition inhibition incubated for 3 days. Type of data set: functional, cell-based. Particulars: LN-229, 72 h.
Data set [3] in a line: Anticancer activity against patient-derived DB93 cells assessed as cell growth inhibition incubated for 3 days. Type of data set: functional, cell-based. The following applies: Homo sapiens, DB93, 72 h.
Data set [4] in a line: Anticancer activity against patient-derived DB70 cells assessed as cell growth inhibition inhibition incubated for 3 days. Type of data set: functional, cell-based. The following applies: Homo sapiens, DB70, 72 h.

As a reminder, the IC50 is the midpoint of a concentration-inhibition curve. For orientation: logP means the decadic logarithm of the partition coefficient of the neutral form, usually between octanol and water. In the case of `CCC1=C(C)/C(=C/c2ccc(C(=O)Nc3nc4ccc(Br)cc4s3)cc2)CCC1(C)C`, the results for the IC50 (in data set [1]; in the data set on U-251) were 100 µM and 75 µM, respectively. Moreover, the lipophilicity (logP) in data set [2] (read-out: logP) amounted to 8.05.

On to `CCC1=C(C)/C(=C/c2ccc(-c3noc(-c4ccncc4)n3)cc2)CCC1(C)C`, for which the IC50 in the data set on LN-229 and with U-251 was over 100 µM throughout. Further, the logP in data set [2] (read-out: logP) came to 6.22.

`CCC1=C(C)/C(=C/c2ccc(C3=NOB(c4ccccc4)N3)cc2)CCC1(C)C`: the IC50 in data set [1] was 47.4 µM; in the data set on LN-229, 60 µM; in data set [3] it was 8.31 µM; in the data set on U-251, 26.8 µM; in data set [4], 13.3 µM. In addition, the logP in data set [2] (read-out: logP) stood at 6.5.

`Cn1nnc2c(C(N)=O)ncn2c1=O` [TEMOZOLOMIDE]: the IC50 was over 500 µM in data set [1]; over 1000 µM in the data set on LN-229; over 500 µM in data set [3]; over 500 µM in the data set on U-251; 25.4 µM in data set [4]. Also, the logP in data set [2] was -1.15.

For the molecule `CCC1=C(C)/C(=C/c2ccc(C(=O)Nc3nccs3)cc2)CCC1(C)C`, the IC50 with LN-229 and with U-251 was over 100 µM in each case. Also, the log partition coefficient (logP) in data set [2] (read-out: logP) was 5.74.

On to `CCC1=C(C)/C(=C/c2ccc(C(=O)Nc3ccc(OC(F)(F)F)cc3)cc2)CCC1(C)C`, for which the IC50 in the data set on LN-229 came to 47.5 µM; with U-251, 20.7 µM. For the same molecule, in data set [2] (read-out: logP), the logP came out at 7.55.

For the molecule `CCC1=C(C)/C(=C/c2ccc(C(=O)Nc3ccc(O)cc3)cc2)CCC1(C)C`, the IC50 (in data set [1]; with U-251) was over 100 µM each time. Also, in data set [2] (read-out: logP), the logP is 5.63.

Regarding `CCC1=C(C)/C(=C/c2ccc(C(=O)Nc3nc4ccccc4s3)cc2)CCC1(C)C`, the IC50 turned out to be 6.64 µM in data set [1]; 22.8 µM with LN-229; 3.54 µM in data set [3]; 19.3 µM in the data set on U-251; 6.67 µM in data set [4]. Further, the logP in data set [2] (read-out: logP) worked out at 7.22.

Turning to `CCC1=C(C)/C(=C/c2ccc(-c3noc(-c4ccc(Br)cc4)n3)cc2)CCC1(C)C`, the figures for the IC50 (in data set [1]; in the data set on U-251) were over 100 µM and 7 µM, respectively. The logP in data set [2] (read-out: logP) turned out to be 8.39.

For the molecule `CCC1=C(C)/C(=C/c2ccc(C(=O)Nc3nc4ccccc4[nH]3)cc2)CCC1(C)C`, the figures for the IC50 with LN-229 and in the data set on U-251 were over 75 µM and 4.47 µM, respectively. The logP in data set [2] (read-out: logP) stood at 5.78.

As to `CCC1=C(C)/C(=C/c2ccc(C(=O)Nc3ccc(Cl)cc3Cl)cc2)CCC1(C)C`, in data set [2] (read-out: logP), the logP is 7.14.

As to `CCC1=C(C)/C(=C/c2ccc(C(=O)NC(=N)N)cc2)CCC1(C)C`, the IC50 in data set [1] was found to be 5.6 µM; in the data set on LN-229, 6.54 µM; in data set [3], 2.09 µM; with U-251 it was 5.06 µM; in data set [4], 1.77 µM. In data set [2] (read-out: logP), the logP was 3.98.

As for `CCC1=C(C)/C(=C/c2ccc(C(=O)Nc3ccc4[nH]c(C(F)(F)F)nc4c3)cc2)CCC1(C)C`, the IC50 in the data set with LN-229 and with U-251 was over 100 µM throughout. The logP in data set [2] (read-out: logP) turned out to be 6.37.

In the case of `CCC1=C(C)/C(=C/c2ccc(C(=O)Nc3ccc(C(F)(F)F)cc3)cc2)CCC1(C)C`, the IC50 in data set [1] was 3.81 µM; in the data set on LN-229, 5.93 µM; in data set [3], over 50 µM; in the data set with U-251, 6.04 µM; in data set [4] it was over 50 µM. Besides, the logP in data set [2] (read-out: logP) was 6.94.

As to `CCC1=C(C)/C(=C/c2ccc(-c3noc(-c4ccc(Cl)cc4)n3)cc2)CCC1(C)C`, the IC50 in data set [1] is over 100 µM; with U-251, 10 µM. For the same molecule, in data set [2] (read-out: logP), the logP stood at 8.12.

As to `CCC1=C(C)/C(=C/c2ccc(C#N)cc2)CCC1(C)C`, the values for the IC50 (in data set [1]; in the data set with U-251) were 72.2 µM and 83.8 µM, respectively. Besides, the logP in data set [2] (read-out: logP) was 5.25.

Consider `CCC1=C(C)/C(=C/c2ccc(-c3noc(-c4cccnc4)n3)cc2)CCC1(C)C`, for which the IC50 was 35.6 µM with LN-229 and 37.8 µM with U-251. Further, the logP in data set [2] (read-out: logP) was determined as 6.22.

As for `CCC1=C(C)/C(=C/c2ccc(-c3noc(-c4ccccc4OC(F)(F)F)n3)cc2)CCC1(C)C`, the half-maximal inhibitory concentration (IC50) in data set [1] was determined as 65.6 µM; in the data set on U-251, 58.4 µM. The molecule also yielded a logP in data set [2] of 9.09.

Turning to `CCC1=C(C)/C(=C/c2ccc(/C(N)=N/O)cc2)CCC1(C)C`, the IC50 in data set [1] amounted to 66.6 µM; in the data set with U-251, 56.8 µM. Besides, the logP in data set [2] (read-out: logP) is 4.53.
